# Values quoted from earlier work, collected in patent US20190105278A1, “SHELLAC MICROCAPSULE FORMULATIONS AND COMPOSITIONS” (CONARIS RESEARCH INSTITUTE AG, priority 2016, published 2019).
# Details: EFSA; for acceptable daily intake (ADI): preparations with at least 90% purity
upper systemic intake limit [mg/kg],acceptable daily intake (ADI) [mg/kg body weight],SMILES
5,5,CC(=O)Nc1ccc(S(=O)(=O)[O-])c2cc(S(=O)(=O)[O-])c(N=Nc3ccc(N=Nc4ccc(S(=O)(=O)[O-])cc4)c4ccc(S(=O)(=O)[O-])cc34)c(O)c12.[Na+].[Na+].[Na+].[Na+] [brilliant black BN]
–,5,O=C1/C(=C2\Nc3ccc(S(=O)(=O)[O-])cc3C2=O)Nc2ccc(S(=O)(=O)[O-])cc21.[Na+].[Na+] [indigo carmine]
5,5,CCN(CC)c1ccc(C(=C2C=CC(=[N+](CC)CC)C=C2)c2cc(O)c(S(=O)(=O)[O-])cc2S(=O)(=O)[O-])cc1.CCN(CC)c1ccc(C(=C2C=CC(=[N+](CC)CC)C=C2)c2cc(O)c(S(=O)(=O)[O-])cc2S(=O)(=O)[O-])cc1.[Ca+2] [patent blue V]
